Laboratory results taken from patent US6353007B1, “Substituted 1-(4-aminophenyl)indoles and their use as anti-inflammatory agents” (Boehringer Ingelheim Pharmaceuticals, Inc., priority 2000, dated 2002).
pIC50: −log10 of the molar value.

Tested on: IL-2 promoter/enhancer
Assay: IL-2 promoter assay (luciferase reporter, J.1F/C6 Jurkat cells, ionomycin and PMA induction)
Type: cell-based
Conditions: Homo sapiens; J.1F/C6 Jurkat cell line; induction with ionomycin and PMA; read-out: IC50, inhibition of luciferase activity
Source text: The IL-2 promoter assay measures transcriptional activation of a luciferase reporter gene which has been placed under control of the IL-2 promoter/enhancer. All the known regulatory features of the IL-2 gene are contained within a ˜300 bp sequence immediately upstream of the open reading frame. The region −328 to +35 relative to the transcription start site of the IL-2 gene is obtained by […] of human genomic DNA and is subcloned into the promoterless luciferase reporter vector pGL2-Basic (Promega). The resulting construct, pIL2P-luc, and a vector containing a neomycin resistance gene, pcDNA/Neo (Invitrogen), are linearized and stably transfected into Jurkat cells (a human T cell line) by electroporation.
For screening compounds, the cells are pelleted by centrifugation, washed once with PBS, resuspended in RPMI (phenol red-free) containing 5% FBS, and dispensed into 96-well, white microtiter plates (Packard) at 50,000 cells/well. The cells are pre-incubated with compounds (1 μg/ml) for 15 min prior to addition of ionomycin (1 μg/ml) and PMA (10 ng/ml) in a final volume of 100 μl. Following a 5 hr incubation at 37° C. in a humidified incubator, 100 μl of Luc-Lite lysis buffer/luciferase assay buffer (Promega) is added and luminescence measured using a Packard TopCount scintillation counter/luminometer.

pIC50: 9.52
Structure (SMILES): C=CC[C@@H]1/C=C(\C)C[C@H](C)C[C@H](OC)[C@H]2O[C@@](O)(C(=O)C(=O)N3CCCC[C@H]3C(=O)O[C@H](/C(C)=C/[C@@H]3CC[C@@H](O)[C@H](OC)C3)[C@H](C)[C@@H](O)CC1=O)[C@H](C)C[C@@H]2OC [FK506]
